Source: patent US4948782A, “A method of promoting the growth of domestic animals with erythromycin derivative containing composition” (Kitasato Kenkyusho, priority 1987, dated 1990)
Like-named read-outs stand apart in the source and are kept apart here.

Tests used:
Format in all cases: cell-based
Bacillus cereus IFO 3001 = experiment: MIC, Bacillus cereus IFO 3001 (BC); details: Bacillus cereus
Bacillus subtilis = experiment: MIC, Bacillus subtilis (BS); details: read-out: MIC BS
Escherichia coli NIHJ = experiment: MIC, Escherichia coli NIHJ (EC)
[1] = system: Klebsiella pneumoniae ATCC 10031; experiment: MIC, Klebsiella pneumoniae ATCC 10031 (KP)
[2] = system: Staphylococcus aureus ATCC 6538P; experiment: MIC, Staphylococcus aureus ATCC 6538P (SA(1)); details: Staphylococcus aureus, ATCC6538P, read-out: MIC SA (1)
From the text: (§1) The minimum inhibitory concentrations (MIC: mcg/ml) of the erythromycin derivatives of the present invention and the control erythromycin derivative (*) as the known growth promoting agent on typical test bacteria are shown in the following Tables 1 to 5.
SA(1): Staphylococcus aureus ATCC 6538P

[3] = system: Staphylococcus aureus FDA 209P; experiment: MIC, Staphylococcus aureus FDA 209P (SA(2)); details: Staphylococcus aureus, FDA209P, read-out: MIC SA (2)
From the text: as §1
SA(2): Staphylococcus aureus FDA 209P

[4] = IFO3001, Bacillus cereus IFO 3001, read-out: MIC BC
[5] = ATCC10031, Klebsiella pneumoniae ATCC 10031, read-out: MIC KP
[6] = Staphylococcus aureus ATCC 6538P

Measured: MIC

C=CC[N+](C)(CC=C)C1CC(C)OC(OC2C(C)C(OC3CC(C)(OC)C(O)C(C)O3)C(C)C(=O)OC(CC)C(C)(O)C(O)C(C)C3=C(C)CC2(C)O3)C1O (stereo not drawn) [Compound 43]
100 µg/mL: [2]; [6] | [3]; Staphylococcus aureus FDA 209P
> 100 µg/mL: Bacillus cereus IFO 3001; [4] | Bacillus subtilis | Escherichia coli NIHJ | [1]; [5]

CCCCN(C)C1CC(C)OC(OC2C(C)C(OC3CC(C)(OC)C(O)C(C)O3)C(C)C(=O)OC(CC)C(C)(O)C(O)C(C)C3=C(C)CC2(C)O3)C1O (stereo not drawn) [Compound 11]
> 100 µg/mL: Bacillus cereus IFO 3001; [4] | Bacillus subtilis | Escherichia coli NIHJ | [1]; [5] | [2]; [6] | [3]; Staphylococcus aureus FDA 209P

CCC1OC(=O)C(C)C(OC2CC(C)(OC)C(O)C(C)O2)C(C)C(OC2OC(C)CC([N+](C)(C)CC#N)C2O)C2(C)CC(C)=C(O2)C(C)C(O)C1(C)O (stereo not drawn) [Compound 33]
> 100 µg/mL: Bacillus cereus IFO 3001; [4] | Bacillus subtilis | Escherichia coli NIHJ | [1]; [5] | [2]; [6] | [3]; Staphylococcus aureus FDA 209P

C#CC[N+](C)(C)C1CC(C)OC(OC2C(C)C(OC3CC(C)(OC)C(O)C(C)O3)C(C)C(=O)OC(CC)C3(C)OC(C)(C)OC3C(C)C3=C(C)CC2(C)O3)C1O (stereo not drawn) [Compound 55]
> 100 µg/mL: Escherichia coli NIHJ | [1]; [5]
12.5 µg/mL: Bacillus cereus IFO 3001; [4] | Bacillus subtilis | [2]; [6] | [3]; Staphylococcus aureus FDA 209P

CCC1OC(=O)C(C)C(OC2CC(C)(OC)C(O)C(C)O2)C(C)C(OC2OC(C)CC([N+](C)(C)CC(=O)O)C2O)C2(C)CC(C)=C(O2)C(C)C(O)C1(C)O (stereo not drawn) [Compound 31]
> 100 µg/mL: Bacillus cereus IFO 3001; [4] | Bacillus subtilis | Escherichia coli NIHJ | [1]; [5] | [2]; [6] | [3]; Staphylococcus aureus FDA 209P

CCC1OC(=O)C(C)C(OC2CC(C)(OC)C(O)C(C)O2)C(C)C(OC2OC(C)CC([N+]3(C)CCCCC3)C2O)C2(C)CC(C)=C(O2)C(C)C(O)C1(C)O (stereo not drawn) [Compound 25]
> 100 µg/mL: Bacillus cereus IFO 3001; [4] | Bacillus subtilis | Escherichia coli NIHJ | [1]; [5] | [2]; [6] | [3]; Staphylococcus aureus FDA 209P

CCCN(C)C1CC(C)OC(OC2C(C)C(OC3CC(C)(OC)C(O)C(C)O3)C(C)C(=O)OC(CC)C(C)(O)C(O)C(C)C3=C(C)CC2(C)O3)C1O (stereo not drawn) [Compound 36]
> 100 µg/mL: Bacillus cereus IFO 3001; [4] | Bacillus subtilis | Escherichia coli NIHJ | [1]; [5] | [2]; [6] | [3]; Staphylococcus aureus FDA 209P

C#CC[N+](CC#C)(CC#C)C1CC(C)OC(OC2C(C)C(OC3CC(C)(OC)C(O)C(C)O3)C(C)C(=O)OC(CC)C(C)(O)C(O)C(C)C3=C(C)CC2(C)O3)C1O (stereo not drawn) [Compound 48]
100 µg/mL: Bacillus cereus IFO 3001; [4] | Bacillus subtilis | [2]; [6] | [3]; Staphylococcus aureus FDA 209P
> 100 µg/mL: Escherichia coli NIHJ | [1]; [5]

C#CC[N+](CC=C)(CC=C)C1CC(C)OC(OC2C(C)C(OC3CC(C)(OC)C(O)C(C)O3)C(C)C(=O)OC(CC)C(C)(O)C(O)C(C)C3=C(C)CC2(C)O3)C1O (stereo not drawn) [Compound 47]
50 µg/mL: Bacillus cereus IFO 3001; [4]
100 µg/mL: Bacillus subtilis | [2]; [6] | [3]; Staphylococcus aureus FDA 209P
> 100 µg/mL: Escherichia coli NIHJ | [1]; [5]

CC[C@H]1OC(=O)[C@H](C)[C@@H](O[C@H]2C[C@@](C)(OC)[C@@H](O)[C@H](C)O2)[C@H](C)[C@@H](O[C@@H]2O[C@H](C)C[C@H]([N+](C)(C)CC)[C@H]2O)[C@@]2(C)CC(C)=C(O2)[C@H](C)[C@@H](O)[C@]1(C)O [Compound 61]
> 100 µg/mL: Bacillus cereus IFO 3001; [4] | Bacillus subtilis | Escherichia coli NIHJ | [1]; [5] | [2]; [6] | [3]; Staphylococcus aureus FDA 209P

C#CC[N+](C)(C)[C@H]1C[C@@H](C)O[C@@H](O[C@@H]2[C@@H](C)[C@H](O[C@H]3C[C@@](C)(OC)[C@@H](O)[C@H](C)O3)[C@@H](C)C(=O)O[C@H](CC)[C@@](C)(O)[C@H](O)[C@@H](C)C3O[C@]2(C)CC3C)[C@@H]1O (stereo partly drawn) [Compound 67]
> 100 µg/mL: Bacillus cereus IFO 3001; [4] | Bacillus subtilis | Escherichia coli NIHJ | [1]; [5] | [2]; [6] | [3]; Staphylococcus aureus FDA 209P

C=CCN(C)C1CC(C)OC(OC2C(C)C(OC3CC(C)(OC)C(O)C(C)O3)C(C)C(=O)OC(CC)C(C)(O)C(O)C(C)C3=C(C)CC2(C)O3)C1O (stereo not drawn) [Compound 34]
> 100 µg/mL: Bacillus cereus IFO 3001; [4] | Bacillus subtilis | Escherichia coli NIHJ | [1]; [5] | [2]; [6] | [3]; Staphylococcus aureus FDA 209P

C#CC[N+](C)(C)C1CC(C)OC(OC2C(C)C(OC3CC(C)(OC)C(O)C(C)O3)C(C)C(=O)OC(CC)C(C)(OC(C)=O)C(OC(C)=O)C(C)C3=C(C)CC2(C)O3)C1O (stereo not drawn) [Compound 28]
> 100 µg/mL: Escherichia coli NIHJ | [1]; [5]
50 µg/mL: Bacillus cereus IFO 3001; [4] | Bacillus subtilis | [2]; [6] | [3]; Staphylococcus aureus FDA 209P

C#CC[N+](C)(C)[C@H]1C[C@@H](C)O[C@@H](O[C@@H]2[C@@H](C)[C@H](O[C@H]3C[C@@](C)(OC)[C@@H](O)[C@H](C)O3)[C@@H](C)C(=O)O[C@H](CC)[C@@](C)(O)[C@H](O)[C@@H](C)C(=O)[C@H](C)C[C@@]2(C)O)[C@@H]1O [Compound 78]
12.5 µg/mL: [2]; [6]
6.25 µg/mL: Bacillus cereus IFO 3001; [4] | Bacillus subtilis
> 100 µg/mL: Escherichia coli NIHJ | [1]; [5]
25 µg/mL: [3]; Staphylococcus aureus FDA 209P

C#CCN(CC#C)C1CC(C)OC(OC2C(C)C(OC3CC(C)(OC)C(O)C(C)O3)C(C)C(=O)OC(CC)C(C)(O)C(O)C(C)C3=C(C)CC2(C)O3)C1O (stereo not drawn) [Compound 40]
> 100 µg/mL: Bacillus cereus IFO 3001; [4] | Bacillus subtilis | Escherichia coli NIHJ | [1]; [5] | [2]; [6] | [3]; Staphylococcus aureus FDA 209P

CC[C@H]1OC(=O)[C@H](C)[C@@H](O[C@H]2C[C@@](C)(OC)[C@@H](O)[C@H](C)O2)[C@H](C)[C@@H](O[C@@H]2O[C@H](C)C[C@H](N(C)C)[C@H]2O)[C@](C)(O)C[C@@H](C)C(=O)[C@H](C)[C@@H](O)[C@]1(C)O [*3, Erythromycin A, reference compound]
0.2 µg/mL: Bacillus cereus IFO 3001; IFO3001, read-out: MIC BC | Bacillus subtilis | [2]
25 µg/mL: Escherichia coli NIHJ
0.4 µg/mL: [3]
6.25 µg/mL: [1]; Klebsiella pneumoniae, ATCC10031, read-out: MIC KP

C#CC[N+](C)(CC=C)C1CC(C)OC(OC2C(C)C(OC3CC(C)(OC)C(O)C(C)O3)C(C)C(=O)OC(CC)C(C)(O)C(O)C(C)C3=C(C)CC2(C)O3)C1O (stereo not drawn) [Compound 44]
100 µg/mL: [3]; Staphylococcus aureus FDA 209P
> 100 µg/mL: Bacillus cereus IFO 3001; [4] | Bacillus subtilis | Escherichia coli NIHJ | [1]; [5] | [2]; [6]

CCC1OC(=O)C(C)C(OC2CC(C)(OC)C(O)C(C)O2)C(C)C(OC2OC(C)CC(NC)C2O)C2(C)CC(C)=C(O2)C(C)C(OC(C)=O)C1(C)OC(C)=O (stereo not drawn) [Compound 52]
> 100 µg/mL: Bacillus cereus IFO 3001; [4] | Bacillus subtilis | Escherichia coli NIHJ | [1]; [5] | [2]; [6] | [3]; Staphylococcus aureus FDA 209P

C=CC[N+](CC=C)(CC=C)C1CC(C)OC(OC2C(C)C(OC3CC(C)(OC)C(O)C(C)O3)C(C)C(=O)OC(CC)C(C)(O)C(O)C(C)C3=C(C)CC2(C)O3)C1O (stereo not drawn) [Compound 46]
> 100 µg/mL: Bacillus cereus IFO 3001; [4] | Bacillus subtilis | Escherichia coli NIHJ | [1]; [5] | [2]; [6] | [3]; Staphylococcus aureus FDA 209P

CC[C@H]1OC(=O)[C@H](C)[C@@H](O[C@H]2C[C@@](C)(OC)[C@@H](O)[C@H](C)O2)[C@H](C)[C@@H](O[C@@H]2O[C@H](C)C[C@H]([N+](C)(C)CC)[C@H]2O)[C@](C)(O)C[C@@H](C)C(=O)[C@H](C)[C@@H](O)[C@]1(C)O [Compound 76]
< 3.12 µg/mL: Bacillus subtilis
6.25 µg/mL: Bacillus cereus IFO 3001; [4] | [2]; [6]
> 100 µg/mL: Escherichia coli NIHJ | [1]; [5]
12.5 µg/mL: [3]; Staphylococcus aureus FDA 209P

CCC1OC(=O)C(C)C(OC2CC(C)(OC)C(O)C(C)O2)C(C)C(OC2OC(C)CC([N+]3(CC)CCCCC3)C2O)C2(C)CC(C)=C(O2)C(C)C(O)C1(C)O (stereo not drawn) [Compound 26]
> 100 µg/mL: Bacillus cereus IFO 3001; [4] | Bacillus subtilis | Escherichia coli NIHJ | [1]; [5] | [2]; [6] | [3]; Staphylococcus aureus FDA 209P

CCC1OC(=O)C(C)C(OC2CC(C)(OC)C(O)C(C)O2)C(C)C(OC2OC(C)CC([N+](C)(C)Cc3ccccc3)C2O)C2(C)CC(C)=C(O2)C(C)C(O)C1(C)O (stereo not drawn) [Compound 17]
50 µg/mL: Bacillus subtilis
100 µg/mL: Bacillus cereus IFO 3001; [4] | [2]; [6] | [3]; Staphylococcus aureus FDA 209P
> 100 µg/mL: Escherichia coli NIHJ | [1]; [5]

CC[C@H]1OC(=O)[C@H](C)[C@@H](O[C@H]2C[C@@](C)(OC)[C@@H](O)[C@H](C)O2)[C@H](C)[C@@H](O[C@@H]2O[C@H](C)C[C@H]([N+](C)(C)CC)[C@H]2O)[C@@]2(C)CC(C)C(O2)[C@H](C)[C@@H](O)[C@]1(C)O (stereo partly drawn) [Compound 63]
> 100 µg/mL: Bacillus cereus IFO 3001; [4] | Bacillus subtilis | Escherichia coli NIHJ | [1]; [5] | [2]; [6] | [3]; Staphylococcus aureus FDA 209P

CCC1OC(=O)C(C)C(OC2CC(C)(OC)C(O)C(C)O2)C(C)C(OC2OC(C)CC([N+](C)(C)CCO)C2O)C2(C)CC(C)=C(O2)C(C)C(O)C1(C)O (stereo not drawn) [Compound 15]
> 100 µg/mL: Bacillus cereus IFO 3001; [4] | Bacillus subtilis | Escherichia coli NIHJ | [1]; [5] | [2]; [6] | [3]; Staphylococcus aureus FDA 209P

CCC1OC(=O)C(C)C(OC2CC(C)(OC)C(O)C(C)O2)C(C)C(OC2OC(C)CC([N+](C)(C)C)C2OC(C)=O)C2(C)CC(C)=C(O2)C(C)C(O)C1(C)O (stereo not drawn) [Compound 7]
> 100 µg/mL: Bacillus cereus IFO 3001; [4] | Bacillus subtilis | Escherichia coli NIHJ | [1]; [5] | [3]; Staphylococcus aureus FDA 209P
100 µg/mL: [2]; [6]

CC[C@H]1OC(=O)[C@H](C)[C@@H](O[C@H]2C[C@@](C)(OC)[C@@H](OC=O)[C@H](C)O2)[C@H](C)[C@@H](O[C@@H]2O[C@H](C)C[C@H]([N+](C)(C)CC)[C@H]2O)[C@@]2(C)CC(C)=C(O2)[C@H](C)[C@@H](O)[C@]1(C)O [Compound 59]
> 100 µg/mL: Bacillus cereus IFO 3001; [4] | Bacillus subtilis | Escherichia coli NIHJ | [1]; [5] | [2]; [6] | [3]; Staphylococcus aureus FDA 209P
